Consider 60 compounds from the OPERA property sets (Mansouri et al. 2018).

Regarding `O=P(OCC(Br)CBr)(OCC(Br)CBr)OCC(Br)CBr` (centres undefined), the melting point (as a rule, the temperature of the solid-liquid transition) amounted to 5.5 °C and the ready biodegradability result is “readily biodegradable”.

For the compound `Nc1cccc(N)c1N`, the boiling point (commonly the temperature of boiling at a given pressure) worked out at 336 °C and the melting point was 103 °C.

As to `FC1=C(F)C(F)(F)C(F)(F)C(F)(F)C1(F)F`, the boiling point worked out at 52 °C.

With `CCCCC=CC(=O)O`, the boiling point is 226 °C and the melting point was -19 °C.

Turning to `N#CCCN(CCC#N)c1ccc(N=Nc2c(Cl)cc([N+](=O)[O-])cc2Cl)cc1`, the ready biodegradability result is recorded as “not readily biodegradable”.

As for `CC(=O)CCCCBr`, the boiling point was 216 °C.

With `C#CCN1C(=O)CN=C(c2ccccc2)c2cc(Cl)ccc21`, the melting point came to 141 °C.

`O=C(Cc1ccccc1)OC(=O)Cc1ccccc1` registered a melting point of 73.3 °C.

Turning to `C=CCC1(CC(C)C)C(=O)NC(=O)NC1=O`, the melting point was 138 °C.

`O=C(O)CC(CC(=O)O)C(=O)O` yielded a melting point of 166 °C.

As for `C=CCCCCCCCCC=C`, the boiling point was 208 °C.

In turn, `Cc1cc(-c2ccccc2)nnc1NCCN1CCOCC1` came in with a melting point of 122 °C.

`CN(C)N=Nc1nc[nH]c1C(N)=O` returned a melting point of 205 °C.

`Clc1ccc(SSc2ccc(Cl)cc2)cc1` came in with a melting point of 68 °C.

For the compound `COc1ccc(Cl)c(Cl)c1Cl`, the melting point turned out to be 69.5 °C.

`O=C(Cl)c1cc(C(=O)Cl)cc(C(=O)Cl)c1` yielded a melting point of 36.3 °C.

On to `C#CCC1CCCCC1`, for which the boiling point amounted to 158 °C.

The compound `C=CC(N)=O` registered a boiling point of 193 °C, a log10 Koc (L/kg) of 1.7, a log10 vapour pressure (mmHg) of -2.15 and a melting point of 84.5 °C. Besides, the ready biodegradability result is “readily biodegradable”.

`O=C(O)CCCCCCCCCCCCC1C=CCC1` (centres undefined): the melting point was found to be 68.5 °C.

As to `CCOC(=O)CCCl`, the boiling point was determined as 162 °C.

`CCCC1CCCC1` had a boiling point of 131 °C, a log10 vapour pressure (mmHg) of 1.09 and a melting point of -117 °C.

Compound `CC(C)(OCc1ccc(-c2ccc(Cl)cc2)cc1)C(=O)O` returned a melting point of 154 °C.

The compound `CCCCNc1ccccc1` returned a boiling point of 244 °C and a melting point of -14.4 °C.

On to `N[C@@H](CSCC(=O)O)C(=O)O`, for which the melting point is 206 °C.

`Clc1ccc(Cl)c(-c2cc(Cl)c(Cl)c(Cl)c2Cl)c1` yielded a log10 Henry constant (atm·m³/mol) of -4.64.

`ClCCCCl`: the boiling point amounted to 121 °C, the log10 Henry constant (atm·m³/mol) is -3.01, the log10 vapour pressure (mmHg) worked out at 1.26 and the melting point was -99.5 °C.

`CC1=C[C@@H](O)[C@@H]2C[C@H]1C2(C)C` (racemic) gave a melting point of 65 °C.

Regarding `c1ccc2c(c1)cnc1ccccc12`, the boiling point turned out to be 349 °C, the log10 vapour pressure (mmHg) was -4.68 and the melting point is 107 °C.

As for `CCOc1cccc([N+](=O)[O-])c1`, the boiling point amounted to 264 °C and the melting point was 36 °C.

For `C[C@@H](CN)c1ccccc1`, the boiling point was 210 °C.

`O=[N+]([O-])c1ccc(O)c2ncccc12` came in with a melting point of 180 °C.

As for `BrC(Br)(Br)Br`, the boiling point worked out at 190 °C, the log10 vapour pressure (mmHg) is -0.569 and the melting point came out at 90.1 °C.

Take `CCCCn1c2ccccc2c2ccccc21`: the melting point came to 58 °C.

Turning to `C=C1CCC1=C`, the boiling point is 64 °C.

For `O=C(Cc1ccccc1)c1ccccc1`, the boiling point stood at 320 °C, the log10 vapour pressure (mmHg) was -3.74 and the melting point amounted to 60 °C.

Take `C=CC(=O)Cl`: the boiling point is 75.5 °C.

`Cc1c([C@H](C)[C@@H]2NC[C@@H](C)C[C@H]2O)ccc2c1C[C@H]1[C@H]2CC=C2C[C@@H](O)CC[C@@]21C`: the melting point was 206 °C.

As for `CCCCCCCCC=CCCCCCCCC(=O)N(C)CCS(=O)(=O)[O][Na]`, the ready biodegradability entry is given as “readily biodegradable”.

For `O=C1c2ccccc2-c2cccc3cccc1c23`, the melting point was determined as 170 °C and the ready biodegradability result is reported as “not readily biodegradable”.

For the compound `CC1(C)N=C(N)N=C(N)N1c1ccc(Cl)cc1`, the melting point stood at 146 °C.

With `C[C@@H]1CC[C@H](C)c2ccccc21`, the boiling point amounted to 226 °C.

The compound `Cc1ccc(NC(O)=NC(C)(C)c2ccccc2)cc1` displayed a log10 vapour pressure (mmHg) of -8.47 and a melting point of 203 °C.

Take `Nc1cccc(-n2ccccc2=O)c1`: the melting point worked out at 183 °C.

Regarding `N#CC1=C(C#N)C(=O)C(Cl)=C(Cl)C1=O`, the melting point came out at 214 °C.

`Cc1cc(Cl)cc2c1C(=O)/C(=C1/Sc3cc(Cl)cc(C)c3C1=O)S2` had a log10 vapour pressure (mmHg) of -13.5.

As to `N#Cc1c[nH]c2ccccc12`, the melting point is 180 °C.

`COc1ccc2c(=O)c3ccccc3oc2c1CN1CCCCC1` came in with a melting point of 160 °C.

Take `C[Si](C)(Cl)c1ccccc1`: the log10 vapour pressure (mmHg) is -0.14.

Compound `FC(Cl)(Cl)Br` returned a boiling point of 52 °C and a melting point of -106 °C.

`CC(C)CCCCCO` gave a boiling point of 188 °C and a melting point of -106 °C.

As for `Nc1c(Cl)ccc(Cl)c1C(=O)O`, the melting point stood at 155 °C.

Take `Cc1ccc([N+](=O)[O-])cc1O`: the ready biodegradability result is recorded as “not readily biodegradable”.

`Brc1ccccc1Br` came in with a boiling point of 225 °C and a melting point of 7.1 °C.

`CCCC(C)C1(CC)C(=O)N=C(O)NC1=O` (centres undefined) gave a melting point of 130 °C.

Compound `Cc1ccc(C(C)C)c(OC(=O)NCCC(C)C)c1` returned a melting point of 57 °C.

The compound `OCC(Cl)CCl` (centres undefined) registered a boiling point of 184 °C.

The compound `O=S(=O)(O)c1ccc2cc(O)ccc2c1` showed a melting point of 125 °C.

As for `C=COCCC(C)C`, the boiling point turned out to be 112 °C.

As to `FCCBr`, the boiling point turned out to be 71.5 °C.

The compound `Cc1cc(C)c(C)cc1C` gave a boiling point of 197 °C, a log10 Koc (L/kg) of 3.12, a log10 biodegradation half-life (days) of 0.845 and a log10 vapour pressure (mmHg) of -0.277. The melting point amounted to 79.3 °C.
